Laboratory results published in patent publication US6420313B1, “Thienylalkylamino-1,3,5-triazines and the use thereof as herbicides” (Bayer Aktiengesellschaft, priority 1998, dated 2002).

Assays:
Type in all cases: in vivo
Viola = test: Post-emergence test/greenhouse, Viola; settings: after three weeks
Method: (§1) Solvent: 5 parts by weight of acetone
(§2) Emulsifier: 1 part by weight of alkylaryl polyglycol ether
(§3) To produce a suitable preparation of active compound, 1 part by weight of active compound is mixed with the stated amount of solvent, the stated amount of emulsifier is added and the concentrate is diluted with water to the desired concentration.
(§4) Test plants of a height of 5-15 cm are sprayed with the preparation of active compound such that the particular amounts of active compound desired are applied per unit area. The concentration of the spray liquor is chosen so that the particular amounts of active compound desired are applied in 1000 l of water/ha.
(§5) After three weeks, the degree of damage to the plants is rated in % damage in comparison to the development of the untreated control.
(§6) 0%=no effect (like untreated control)

wheat [1] = test: Post-emergence test/greenhouse, wheat; settings: after three weeks
Method: as §1, §2, §3, §4, §5, §6

Solanum [2] = test: Post-emergence test/greenhouse, Solanum; settings: after three weeks
Method: as §1, §2, §3, §4, §5, §6

Ipomoea = test: Post-emergence test/greenhouse, Ipomoea; settings: after three weeks
Method: as §1, §2, §3, §4, §5, §6

barley = test: Post-emergence test/greenhouse, barley; settings: after three weeks
Method: as §1, §2, §3, §4, §5, §6

Datura = test: Post-emergence test/greenhouse, Datura; settings: after three weeks
Method: as §1, §2, §3, §4, §5, §6

weeds [3] = test: Post-emergence test, activity against weeds; settings: result in words
Method: as §1, §2, §3, §4, §5, §6

[4] = tested on: crop plants, such as, for example, maize, barley and wheat; test: Post-emergence test, tolerance by crop plants; settings: result in words
Method: as §1, §2, §3, §4, §5, §6

Setaria = test: Post-emergence test/greenhouse, Setaria; settings: after three weeks
Method: as §1, §2, §3, §4, §5, §6

weeds [5] = test: Pre-emergence test, activity against weeds; settings: result in words
Method: as §1, §2, §3
(§7) Seeds of the test plants are sown in normal soil. After about 24 hours, the soil is sprayed with the preparation of active compound such that the particular amount of active compound desired is applied per unit area. The concentration of the spray liquor is chosen so that the particular amount of active compound desired is applied in 1000 liters of water per hectare.
as §5, §6

[6] = tested on: crop plants, such as, for example, cotton, maize, wheat and barley; test: Pre-emergence test, tolerance by crop plants; settings: result in words
Method: as §1, §2, §3, §7, §5, §6

Digitaria [7] = test: Post-emergence test/greenhouse, digitaria; settings: 500 g of ai./ha, after three weeks
Method: as §1, §2, §3, §4, §5, §6

maize [8] = test: Post-emergence test/greenhouse, maize; settings: 1000 g of ai./ha, after three weeks
Method: as §1, §2, §3, §4, §5, §6

Abutilon = test: Post-emergence test/greenhouse, Abutilon; settings: 1000 g of ai./ha, after three weeks
Method: as §1, §2, §3, §4, §5, §6

Sinapis [9] = test: Post-emergence test/greenhouse, Sinapis; settings: 1000 g of ai./ha, after three weeks
Method: as §1, §2, §3, §4, §5, §6

Amaranthus [10] = test: Post-emergence test/greenhouse, Amaranthus; settings: 1000 g of ai./ha, after three weeks
Method: as §1, §2, §3, §4, §5, §6

Sinapis [11] = test: Pre-emergence test/greenhouse, Sinapis; settings: 1000 g of ai./ha, after three weeks
Method: as §1, §2, §3, §7, §5, §6

maize [12] = test: Pre-emergence test/greenhouse, maize; settings: after three weeks
Method: as §1, §2, §3, §7, §5, §6

Amaranthus [13] = test: Pre-emergence test/greenhouse, Amaranthus; settings: after three weeks
Method: as §1, §2, §3, §7, §5, §6

Alopecurus = test: Pre-emergence test/greenhouse, Alopecurus; settings: after three weeks
Method: as §1, §2, §3, §7, §5, §6

wheat [14] = test: Pre-emergence test/greenhouse, wheat; settings: 500 g of ai./ha, after three weeks
Method: as §1, §2, §3, §7, §5, §6

Solanum [15] = test: Pre-emergence test/greenhouse, Solanum; settings: 500 g of ai./ha, after three weeks
Method: as §1, §2, §3, §7, §5, §6

Chenopodium = test: Pre-emergence test/greenhouse, Chenopodium; settings: 500 g of ai./ha, after three weeks
Method: as §1, §2, §3, §7, §5, §6

Digitaria [16] = test: Pre-emergence test/greenhouse, Digitaria; settings: 500 g of ai./ha, after three weeks
Method: as §1, §2, §3, §7, §5, §6

Veronica = test: Pre-emergence test/greenhouse, Veronica; settings: 504 h, 500 g of ai./ha, after three weeks, read-out: degree of damage, Veronica
Method: as §1, §2, §3, §7, §5, §6

## CCC(CCc1cc(Br)cs1)Nc1nc(N)nc(C(C)(C)F)n1 (racemic) [Example 2]
Viola; 125 g of ai./ha
  degree of damage, Viola: 95%
Wheat [1]; 125 g of ai./ha
  degree of damage, wheat: 0%
Solanum [2]; 125 g of ai./ha
  degree of damage, Solanum: 100%
Ipomoea; 125 g of ai./ha
  degree of damage, Ipomoea: 95%
barley; 125 g of ai./ha
  degree of damage, barley: 0%
Datura; 125 g of ai./ha
  degree of damage, Datura: 95%
Weeds [3]
  activity against weeds: strong activity against weeds
[4]
  tolerance by crop plants: tolerated well

## CCC(CCc1ccc(Br)s1)Nc1nc(N)nc(C(C)F)n1 (racemic) [Example 4]
Setaria; 500 g of ai./ha
  degree of damage, Setaria: 80%
Viola; 500 g of ai./ha
  degree of damage, Viola: 100%
Wheat [1]; 500 g of ai./ha
  degree of damage, wheat: 0%
Solanum [2]; 500 g of ai./ha
  degree of damage, Solanum: 95%
Weeds [5]
  activity against weeds: strong activity against weeds
Ipomoea; 500 g of ai./ha
  degree of damage, Ipomoea: 95%
barley; 500 g of ai./ha
  degree of damage, barley: 0%
Datura; 500 g of ai./ha
  degree of damage, Datura: 95%
[6]
  tolerance by crop plants: largely tolerated well
Weeds [3]
  activity against weeds: strong activity against weeds
[4]
  tolerance by crop plants: tolerated well

## CCC(CCc1ccc(Br)s1)Nc1nc(N)nc(C(C)(C)F)n1 (racemic) [Example 5]
Viola; 500 g of ai./ha
  degree of damage, Viola: 95%
Wheat [1]; 500 g of ai./ha
  degree of damage, wheat: 0%
Solanum [2]; 500 g of ai./ha
  degree of damage, Solanum: 100%
Weeds [5]
  activity against weeds: strong activity against weeds
Ipomoea; 500 g of ai./ha
  degree of damage, Ipomoea: 95%
barley; 500 g of ai./ha
  degree of damage, barley: 0%
Datura; 500 g of ai./ha
  degree of damage, Datura: 100%
[6]
  tolerance by crop plants: largely tolerated well
Weeds [3]
  activity against weeds: strong activity against weeds
[4]
  tolerance by crop plants: tolerated well

## CCC(CCc1cc(Br)cs1)Nc1nc(NC(C)=O)nc(C(C)F)n1 (racemic) [Example 6]
Viola; 500 g of ai./ha
  degree of damage, Viola: 100%
Wheat [1]; 500 g of ai./ha
  degree of damage, wheat: 0%
Digitaria [7]
  degree of damage, Digitaria: 90%
Solanum [2]; 500 g of ai./ha
  degree of damage, Solanum: 100%
Weeds [5]
  activity against weeds: strong activity against weeds
Ipomoea; 500 g of ai./ha
  degree of damage, Ipomoea: 100%
barley; 500 g of ai./ha
  degree of damage, barley: 0%
Datura; 500 g of ai./ha
  degree of damage, Datura: 100%
[6]
  tolerance by crop plants: largely tolerated well
Weeds [3]
  activity against weeds: strong activity against weeds
[4]
  tolerance by crop plants: tolerated well

## CC(CCCc1cccs1)Nc1nc(N)nc(C(C)(C)F)n1 (stereo not shown) [Example 1, 2-amino-4-(1-fluoro-1-methyl-ethyl)-6-(1-methyl-4-(thien-2-yl)-butylamino)-1,3,5-triazine]
Maize [8]
  degree of damage, maize: 30%
Abutilon
  degree of damage, Abutilon: 95%
Sinapis [9]
  degree of damage, Sinapis: 100%
Setaria; 1000 g of ai./ha
  degree of damage, Setaria: 80%
Weeds [5]
  activity against weeds: strong activity against weeds
[6]
  tolerance by crop plants: largely tolerated well
Amaranthus [10]
  degree of damage, Amaranthus: 100%
Weeds [3]
  activity against weeds: strong activity against weeds
[4]
  tolerance by crop plants: tolerated well

## CC(CCCc1cccs1)Nc1nc(N)nc(C(C)(C)F)n1 (stereo not shown) [drawing 225]
Sinapis [11]
  degree of damage, Sinapis: 90%
Maize [12]; 1000 g of ai./ha
  degree of damage, maize: 0%
Amaranthus [13]; 1000 g of ai./ha
  degree of damage, Amaranthus: 95%
Alopecurus; 1000 g of ai./ha
  degree of damage, Alopecurus: 80%

## CCC(CCc1ccc(Br)s1)Nc1nc(N)nc(C(C)F)n1 (stereo not shown) [drawing 226]
Maize [12]; 500 g of ai./ha
  degree of damage, maize: 0%
Wheat [14]
  degree of damage, wheat: 0%

## CCC(CCc1ccc(Br)s1)Nc1nc(N)nc(C(C)(C)F)n1 (stereo not shown) [drawing 227]
Maize [12]; 500 g of ai./ha
  degree of damage, maize: 0%
Wheat [14]
  degree of damage, wheat: 0%

## CCC(CCc1cc(Br)cs1)Nc1nc(NC(C)=O)nc(C(C)F)n1 (stereo not shown) [drawing 228]
Maize [12]; 500 g of ai./ha
  degree of damage, maize: 0%

## CCC(CCc1cc(Br)cs1)Nc1nc(NC(C)=O)nc(C(C)(C)F)n1 (stereo not shown) [drawing 229]
Wheat [14]
  degree of damage, wheat: 0%
Alopecurus; 500 g of ai./ha
  degree of damage, Alopecurus: 95%

## CCC(CCc1sccc1Br)Nc1nc(N)nc(C(C)(C)F)n1 (stereo not shown) [drawing 230]
Amaranthus [13]; 500 g of ai./ha
  degree of damage, Amaranthus: 100%

## CCC(CCc1sccc1Br)Nc1nc(N)nc(C(C)F)n1 (stereo not shown) [drawing 231]
Amaranthus [13]; 500 g of ai./ha
  degree of damage, Amaranthus: 100%

## CCC(CCc1sccc1Br)Nc1nc(NC(C)=O)nc(C(C)F)n1 (stereo not shown) [drawing 232]
Wheat [14]
  degree of damage, wheat: 0%
Amaranthus [13]; 500 g of ai./ha
  degree of damage, Amaranthus: 100%

## CCC(CCc1cc(C)sc1C)Nc1nc(N)nc(C(C)F)n1 (stereo not shown) [drawing 233]
Maize [12]; 500 g of ai./ha
  degree of damage, maize: 0%
Wheat [14]
  degree of damage, wheat: 0%
Amaranthus [13]; 500 g of ai./ha
  degree of damage, Amaranthus: 100%

## CCC(CCc1cc(C)sc1C)Nc1nc(NC(C)=O)nc(C(C)(C)F)n1 (stereo not shown) [drawing 234]
Maize [12]; 500 g of ai./ha
  degree of damage, maize: 0%
Wheat [14]
  degree of damage, wheat: 0%

## CCC(CCc1ccc(Br)s1)Nc1nc(N)nc(C(C)F)n1 (stereo not shown) [drawing 236]
Solanum [15]
  degree of damage, Solanum: 100%
Chenopodium
  degree of damage, Chenopodium: 100%
Digitaria [16]
  degree of damage, Digitaria: 100%
Veronica
  pest or weed control at 500 g/ha: 100%

## CCC(CCc1ccc(Br)s1)Nc1nc(N)nc(C(C)(C)F)n1 (stereo not shown) [drawing 237]
Solanum [15]
  degree of damage, Solanum: 100%
Chenopodium
  degree of damage, Chenopodium: 100%
Digitaria [16]
  degree of damage, Digitaria: 100%
Veronica
  pest or weed control at 500 g/ha: 100%

## CCC(CCc1cc(Br)cs1)Nc1nc(NC(C)=O)nc(C(C)F)n1 (stereo not shown) [drawing 238]
Chenopodium
  degree of damage, Chenopodium: 100%
Veronica
  pest or weed control at 500 g/ha: 100%
